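Assay format: 96-well plates, 48-hour exposure. Here, GI50 denotes the concentration required for 50% inhibition of growth. TGI is the concentration that stops growth completely.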
Legend:
Assay in all cases: NCI anticancer screen, dose series, 48 h
EKVX NSCLC = test system: EKVX NSCLC
OVCAR-4 ovarian = test system: OVCAR-4 ovarian
SK-MEL-5 melanoma = test system: SK-MEL-5 melanoma
SK-MEL-2 melanoma = test system: SK-MEL-2 melanoma
SN12C renal = test system: SN12C renal
MDA-MB-231 breast = test system: MDA-MB-231 breast
NCI-H23 lung = test system: NCI-H23 lung
RPMI-8226 leukemia = test system: RPMI-8226 leukemia
A498 renal = test system: A498 renal
UACC-257 melanoma = test system: UACC-257 melanoma
PC-3 prostate = test system: PC-3 prostate
UO-31 renal = test system: UO-31 renal
KM12 colon = test system: KM12 colon
SNB-19 CNS = test system: SNB-19 CNS
HCT-116 colon = test system: HCT-116 colon
LOX IMVI melanoma = test system: LOX IMVI melanoma
SK-OV-3 ovarian = test system: SK-OV-3 ovarian
SF-295 CNS = test system: SF-295 CNS
MCF7 breast = test system: MCF7 breast
SNB-75 CNS = test system: SNB-75 CNS
U251 CNS = test system: U251 CNS
BT-549 breast = test system: BT-549 breast
IGROV1 ovarian = test system: IGROV1 ovarian
HOP-62 NSCLC = test system: HOP-62 NSCLC
SK-MEL-28 melanoma = test system: SK-MEL-28 melanoma
T-47D breast = test system: T-47D breast
HS 578T breast = test system: HS 578T breast
HCC-2998 colon = test system: HCC-2998 colon
UACC-62 melanoma = test system: UACC-62 melanoma
HL-60(TB) leukemia = test system: HL-60(TB) leukemia
SW-620 colon = test system: SW-620 colon
NCI-H522 lung = test system: NCI-H522 lung
CCRF-CEM leukemia = test system: CCRF-CEM leukemia
786-0 renal = test system: 786-0 renal
K-562 leukemia = test system: K-562 leukemia
COLO 205 colon = test system: COLO 205 colon
HCT-15 colon = test system: HCT-15 colon
OVCAR-3 ovarian = test system: OVCAR-3 ovarian
MDA-MB-435 = test system: MDA-MB-435
OVCAR-5 ovarian = test system: OVCAR-5 ovarian
NCI-H226 lung = test system: NCI-H226 lung
MOLT-4 leukemia = test system: MOLT-4 leukemia
DU-145 prostate = test system: DU-145 prostate
SF-268 CNS = test system: SF-268 CNS
NCI-H460 lung = test system: NCI-H460 lung
OVCAR-8 ovarian = test system: OVCAR-8 ovarian
TK-10 renal = test system: TK-10 renal
CAKI-1 renal = test system: CAKI-1 renal
A549 NSCLC = test system: A549 NSCLC
HOP-92 NSCLC = test system: HOP-92 NSCLC
NCI/ADR-RES ovarian = test system: NCI/ADR-RES ovarian
M14 melanoma = test system: M14 melanoma
MALME-3M melanoma = test system: MALME-3M melanoma
HT29 colon = test system: HT29 colon
RXF 393 renal = test system: RXF 393 renal
SF-539 CNS = test system: SF-539 CNS
ACHN renal = test system: ACHN renal

Compound: CN1CCC(n2cnc(-c3ccc(F)cc3)c2-c2ccnc(Nc3ccccc3)n2)CC1
- GI50 (EKVX NSCLC): 3.75 µM
- TGI (EKVX NSCLC): > 25 µM
- GI50 (OVCAR-4 ovarian): 8.12 µM
- TGI (OVCAR-4 ovarian): > 25 µM
- GI50 (SK-MEL-5 melanoma): 4.14 µM
- TGI (SK-MEL-5 melanoma): 9.43 µM
- GI50 (SK-MEL-2 melanoma): 11.3 µM
- TGI (SK-MEL-2 melanoma): > 25 µM
- GI50 (SN12C renal): 7.09 µM
- TGI (SN12C renal): > 25 µM
- GI50 (MDA-MB-231 breast): 13.6 µM
- TGI (MDA-MB-231 breast): > 25 µM
- GI50 (NCI-H23 lung): 16.3 µM
- TGI (NCI-H23 lung): > 25 µM
- GI50 (RPMI-8226 leukemia): > 20.8 µM
- TGI (RPMI-8226 leukemia): > 25 µM
- GI50 (A498 renal): 7.77 µM
- TGI (A498 renal): > 25 µM
- GI50 (UACC-257 melanoma): 4.22 µM
- TGI (UACC-257 melanoma): 9.25 µM
- GI50 (PC-3 prostate): 12.2 µM
- TGI (PC-3 prostate): > 25 µM
- GI50 (UO-31 renal): 0.969 µM
- TGI (UO-31 renal): > 11.7 µM
- GI50 (KM12 colon): 8.11 µM
- TGI (KM12 colon): > 25 µM
- GI50 (SNB-19 CNS): 16.1 µM
- TGI (SNB-19 CNS): > 25 µM
- GI50 (HCT-116 colon): 7.27 µM
- TGI (HCT-116 colon): > 25 µM
- GI50 (LOX IMVI melanoma): 5.78 µM
- TGI (LOX IMVI melanoma): > 25 µM
- GI50 (SK-OV-3 ovarian): 3.81 µM
- TGI (SK-OV-3 ovarian): > 25 µM
- GI50 (SF-295 CNS): > 19.2 µM
- TGI (SF-295 CNS): > 25 µM
- GI50 (MCF7 breast): 1.83 µM
- TGI (MCF7 breast): > 25 µM
- GI50 (SNB-75 CNS): 7.22 µM
- TGI (SNB-75 CNS): 24.8 µM
- GI50 (U251 CNS): 6.7 µM
- TGI (U251 CNS): > 25 µM
- GI50 (BT-549 breast): 10.4 µM
- TGI (BT-549 breast): > 25 µM
- GI50 (IGROV1 ovarian): 3.04 µM
- TGI (IGROV1 ovarian): > 13.1 µM
- GI50 (HOP-62 NSCLC): 13.1 µM
- TGI (HOP-62 NSCLC): > 25 µM
- GI50 (SK-MEL-28 melanoma): 5.19 µM
- TGI (SK-MEL-28 melanoma): 11 µM
- GI50 (T-47D breast): 6.85 µM
- TGI (T-47D breast): > 25 µM
- GI50 (HS 578T breast): 11.5 µM
- TGI (HS 578T breast): > 25 µM
- GI50 (HCC-2998 colon): 6.76 µM
- TGI (HCC-2998 colon): > 25 µM
- GI50 (UACC-62 melanoma): 6.54 µM
- TGI (UACC-62 melanoma): > 23 µM
- GI50 (HL-60(TB) leukemia): 9.65 µM
- TGI (HL-60(TB) leukemia): > 23.2 µM
- GI50 (SW-620 colon): 7.88 µM
- TGI (SW-620 colon): > 25 µM
- GI50 (NCI-H522 lung): 5.73 µM
- TGI (NCI-H522 lung): > 15.7 µM
- GI50 (CCRF-CEM leukemia): 12.1 µM
- TGI (CCRF-CEM leukemia): > 25 µM
- GI50 (786-0 renal): 8.4 µM
- TGI (786-0 renal): > 25 µM
- GI50 (K-562 leukemia): 5.94 µM
- TGI (K-562 leukemia): > 25 µM
- GI50 (COLO 205 colon): 3.34 µM
- TGI (COLO 205 colon): 7.19 µM
- GI50 (HCT-15 colon): 6.22 µM
- TGI (HCT-15 colon): > 25 µM
- GI50 (OVCAR-3 ovarian): 7.65 µM
- TGI (OVCAR-3 ovarian): > 25 µM
- GI50 (MDA-MB-435): 3.64 µM
- TGI (MDA-MB-435): 11.9 µM
- GI50 (OVCAR-5 ovarian): 15 µM
- TGI (OVCAR-5 ovarian): > 25 µM
- GI50 (NCI-H226 lung): 18.3 µM
- TGI (NCI-H226 lung): > 25 µM
- GI50 (MOLT-4 leukemia): 12 µM
- TGI (MOLT-4 leukemia): > 25 µM
- GI50 (DU-145 prostate): 10.4 µM
- TGI (DU-145 prostate): > 25 µM
- GI50 (SF-268 CNS): 9.91 µM
- TGI (SF-268 CNS): > 25 µM
- GI50 (NCI-H460 lung): 5.39 µM
- TGI (NCI-H460 lung): > 25 µM
- GI50 (OVCAR-8 ovarian): 8.86 µM
- TGI (OVCAR-8 ovarian): > 25 µM
- GI50 (TK-10 renal): 2.34 µM
- TGI (TK-10 renal): > 25 µM
- GI50 (CAKI-1 renal): 1.79 µM
- TGI (CAKI-1 renal): > 15.3 µM
- GI50 (A549 NSCLC): 2.81 µM
- TGI (A549 NSCLC): > 25 µM
- GI50 (HOP-92 NSCLC): 5.18 µM
- TGI (HOP-92 NSCLC): 24.6 µM
- GI50 (NCI/ADR-RES ovarian): 7.65 µM
- TGI (NCI/ADR-RES ovarian): > 25 µM
- GI50 (M14 melanoma): 5.58 µM
- TGI (M14 melanoma): 14.7 µM
- GI50 (MALME-3M melanoma): 4.77 µM
- TGI (MALME-3M melanoma): 12.4 µM
- GI50 (HT29 colon): 3.95 µM
- TGI (HT29 colon): > 25 µM
- GI50 (RXF 393 renal): 10.5 µM
- TGI (RXF 393 renal): > 25 µM
- GI50 (SF-539 CNS): 13.2 µM
- TGI (SF-539 CNS): > 25 µM
- GI50 (ACHN renal): 1.14 µM
- TGI (ACHN renal): > 25 µM
